Reference: PMC7044277 (Nature Communications, 2020)
Values joined by “and” are separate entries in the source; they are usually repeats but may differ in a detail not shown here. Equal values may be shown once.

How the values were obtained:
5HT1F = biological target: T1, 5HT1F (Homo sapiens, UniProt P30939); assay: β-arrestin2 recruitment (Tango); assay type: cell-based; details: for β-arrestin2 recruitment response, agonist mode (single replicate values): Fig_S10j; for Fig_S10j dose-response, drug alone (agonist mode), β-arrestin2 recruitment: single replicate values
T1 construct: expressed in transfected cells; host or cells: HTLA cells expressing TEV-fused β-arrestin2
T1 sequence (P30939 1-366): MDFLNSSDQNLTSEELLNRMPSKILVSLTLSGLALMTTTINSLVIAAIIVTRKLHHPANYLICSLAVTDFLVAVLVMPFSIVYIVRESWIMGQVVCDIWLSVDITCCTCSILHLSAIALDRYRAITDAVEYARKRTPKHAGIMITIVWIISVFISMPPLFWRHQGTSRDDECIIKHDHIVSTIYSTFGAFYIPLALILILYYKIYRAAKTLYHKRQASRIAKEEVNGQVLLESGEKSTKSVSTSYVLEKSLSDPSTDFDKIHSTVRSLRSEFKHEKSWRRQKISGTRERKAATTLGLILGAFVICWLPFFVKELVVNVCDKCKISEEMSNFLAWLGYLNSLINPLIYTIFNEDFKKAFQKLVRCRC

5HT1E = 5HT1E (Homo sapiens, UniProt P28566); assay: β-arrestin2 recruitment (Tango); assay type: cell-based; details: Fig_S10i
5HT4 = biological target: T2, 5HT4 (Homo sapiens, UniProt Q13639); assay: β-arrestin2 recruitment (Tango); assay type: cell-based; details: Fig_S10n, drug alone
T2 construct: expressed in transfected cells; host or cells: HTLA cells expressing TEV-fused β-arrestin2

[1] = test system: serotonin receptor (subtype not given; reference agonist serotonin); assay: β-arrestin2 recruitment (Tango), agonist activity, source data Fig_S10l; assay type: cell-based, human; details: drug alone

5HT1E, sequence (P28566 whole entry): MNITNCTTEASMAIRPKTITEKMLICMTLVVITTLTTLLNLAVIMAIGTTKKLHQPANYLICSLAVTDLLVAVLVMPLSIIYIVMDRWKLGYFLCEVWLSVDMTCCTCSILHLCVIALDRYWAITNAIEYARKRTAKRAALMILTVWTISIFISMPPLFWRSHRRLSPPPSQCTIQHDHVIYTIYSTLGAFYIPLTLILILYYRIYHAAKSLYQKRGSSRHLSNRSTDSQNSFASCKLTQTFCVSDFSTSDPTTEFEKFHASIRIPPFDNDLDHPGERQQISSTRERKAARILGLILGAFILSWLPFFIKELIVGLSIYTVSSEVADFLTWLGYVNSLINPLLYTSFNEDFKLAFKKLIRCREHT
T2 sequence (Q13639 whole entry, the tested form may be a part): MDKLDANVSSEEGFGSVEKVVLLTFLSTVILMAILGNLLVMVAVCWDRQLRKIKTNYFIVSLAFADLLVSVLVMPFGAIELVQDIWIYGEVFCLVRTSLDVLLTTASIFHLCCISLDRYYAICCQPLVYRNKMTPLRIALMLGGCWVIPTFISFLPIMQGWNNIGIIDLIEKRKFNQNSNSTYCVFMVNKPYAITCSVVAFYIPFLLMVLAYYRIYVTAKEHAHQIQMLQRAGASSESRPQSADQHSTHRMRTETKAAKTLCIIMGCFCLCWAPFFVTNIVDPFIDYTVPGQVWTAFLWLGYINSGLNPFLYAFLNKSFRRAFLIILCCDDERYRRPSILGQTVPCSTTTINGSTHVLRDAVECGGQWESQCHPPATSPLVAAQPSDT

`NCCc1c[nH]c2ccc(O)cc12` [serotonin] was tested, and the “β-arrestin2 recruitment response, agonist mode (single replicate values)” value (5HT1F; Log[Drug] -8) was -3.452 and 0.8129 and -0.7741 and 0.7081 and -0.3166, the “β-arrestin2 recruitment response, agonist mode (single replicate values)” value (5HT1F; Log[Drug] -8.52) was 1.467 and -0.5936 and -0.6771 and -0.2347 and -1.695 and -2.24 and -2.059 and -1.682 and -0.1562 and 2.169 and 0.8707 and -1.81 and the “β-arrestin2 recruitment response, agonist mode (single replicate values)” value (5HT1F; Log[Drug] -9) was -0.04426 and -0.9855 and -1.843 and -0.9137 and -1.161 and -1.413 and 1.14 and -2.447 and -1.948 and 1.946 and -0.5 and -0.1377. The “β-arrestin2 recruitment response, agonist mode (single replicate values)” value (5HT1F; Log[Drug] -9.52) was -2.101 and 2.6714 and -0.3744 and -0.1804 and 3.084 and -0.3427 and -1.809 and -0.4001 and 2.85 and -0.1339 and -0.298, the “β-arrestin2 recruitment response, agonist mode (single replicate values)” value (5HT1F; Log[Drug] -10) was -0.8375 and -0.7488 and -1.773 and 1.74 and -2.24 and -1.559 and -0.2741 and -1.133 and -0.7969 and 0.416 and -0.2133 and -1.1997 and the “β-arrestin2 recruitment response, agonist mode (single replicate values)” value (5HT1F; Log[Drug] -10.52) was -2.914 and -1.511 and -1.366 and -1.154 and -2.628 and -0.5924 and -0.6184 and 5.324 and 0.8942 and 0.1831 and -0.2458 and -1.109. For the same compound, the “β-arrestin2 recruitment response, agonist mode (single replicate values)” value (5HT1F; Log[Drug] -11) was 4.606 and -2.13 and -1.057 and 0.00776 and -2.261 and -1.2903 and -0.3379 and -1.603 and 0.8607 and 0.8858 and 0.4773 and -0.3843, the “β-arrestin2 recruitment response, agonist mode (single replicate values)” value (5HT1F; Log[Drug] -11.52) was -1.978 and -2.064 and -1.769 and 3.255 and 2.53 and 1.832 and 0.0271 and 2.781 and -0.9914 and 1.71 and -0.0711 and -0.3911 and the “β-arrestin2 recruitment response, agonist mode (single replicate values)” value (5HT1F; Log[Drug] -12) was -1.651 and 2.46 and -1.762 and -0.6984 and -0.5958 and -0.3302 and -0.006376 and -1.878 and -2.439 and 3.47 and -0.3101 and 0.7769. The “Fig_S10j dose-response, drug alone (agonist mode), β-arrestin2 recruitment” value (shortened to “Fig_S10j dose-response, drug alone”) (5HT1F; Log[Drug] -5) was 60.4606 and 65.0002 and 90.3142 and 57.9444 and 78.7631 and 57.8244 and 78.5234 and 70.8275 and 63.3071, the “Fig_S10j dose-response, drug alone” value (5HT1F; Log[Drug] -5.52) was 68.8966 and 66.6667 and 38.5966 and 34.7166 and 67.3748 and 41.3918 and 50.0717 and 43.7042 and 56.4145 and 60.2307 and 56.8071 and the “Fig_S10j dose-response, drug alone” value (5HT1F; Log[Drug] -6) was 65.3117 and 41.5532 and 32.9512 and 18.8414 and 35.6041 and 33.2006 and 38.6085 and 22.7128 and 20.6455 and 38.0393 and 43.4213 and 39.1952. The “Fig_S10j dose-response, drug alone” value (5HT1F; Log[Drug] -6.52) was 37.7864 and 17.7453 and 10.6352 and 8.195 and 10.8807 and 16.9203 and 24.2636 and 7.26 and 7.434 and 25.9629 and 24.0976 and 19.2564, the “Fig_S10j dose-response, drug alone” value (5HT1F; Log[Drug] -7) was 0.08171 and 0.8827 and 2.8945 and 3.486 and 0.8409 and 1.495 and 3.165 and 2.979 and 1.237 and 11.4622 and 7.762 and 4.191 and the “Fig_S10j dose-response, drug alone” value (5HT1F; Log[Drug] -7.52) was -1.661 and -1.926 and 1.238 and 3.081 and -2.387 and 1.699 and 4.498 and -1.4313 and 5.445 and 5.244 and 1.302 and 0.4992. The “β-arrestin2 recruitment response, agonist mode (single replicate values)” value (5HT1E; Log[Drug] -5.52) was 108.092 and 78.7034 and 68.0996 and 111.634 and 84.2736 and 51.0795 and 58.1946, the “β-arrestin2 recruitment response, agonist mode (single replicate values)” value (5HT1E; Log[Drug] -6) was 49.7303 and 44.0521 and 69.0964 and 55.0788 and 40.5129 and 63.4469 and 42.3724 and 34.8106 and the “β-arrestin2 recruitment response, agonist mode (single replicate values)” value (5HT1E; Log[Drug] -6.52) was 106.224 and 69.1939 and 36.3693 and 81.3314 and 34.6361 and 22.755 and 52.7781 and 32.1336 and 42.1707. For the same compound, the “β-arrestin2 recruitment response, agonist mode (single replicate values)” value (5HT1E; Log[Drug] -7) was 29.3778 and 17.2077 and 21.8054 and 52.9182 and 14.1436 and 22.9549 and 34.3028 and 15.3331 and 17.5442, the “β-arrestin2 recruitment response, agonist mode (single replicate values)” value (5HT1E; Log[Drug] -7.52) was 41.4851 and -6.092 and 11.8176 and 23.4775 and 20.4513 and 6.343 and -1.8765 and -0.1243 and 3.783 and the “β-arrestin2 recruitment response, agonist mode (single replicate values)” value (5HT1E; Log[Drug] -8) was 21.7287 and -17.9678 and 1.664 and 16.3198 and 16.2023 and 1.767 and -8.704 and -1.0625 and 5.333. For the same compound, the “β-arrestin2 recruitment response, agonist mode (single replicate values)” value (5HT1E; Log[Drug] -8.52) was 26.6743 and -0.7908 and -7.94 and 18.4011 and -5.808 and -1.038 and -3.241 and -4.6991 and -0.4891, the “β-arrestin2 recruitment response, agonist mode (single replicate values)” value (5HT1E; Log[Drug] -9) was -13.5816 and -3.11 and -9.22 and 15.9426 and -4.472 and -7.47 and -3.2021 and 8.202 and 2.053 and the “β-arrestin2 recruitment response, agonist mode (single replicate values)” value (5HT1E; Log[Drug] -9.52) was -5.0682 and -13.6215 and 3.951 and -3.374 and 10.856 and -15.4751 and -6.969 and 2.056 and -4.273. For the same compound, the “β-arrestin2 recruitment response, agonist mode (single replicate values)” value (5HT1E; Log[Drug] -10) was -0.8245 and 7.169 and 4.501 and 15.8236 and -1.758 and 5.793 and -9.018 and 1.66, the “β-arrestin2 recruitment response, agonist mode (single replicate values)” value (5HT1E; Log[Drug] -10.52) was -1.038 and -22.0751 and -13.8927 and 22.1779 and 3.45 and -2.9 and -5.64 and 8.736 and the “β-arrestin2 recruitment response, agonist mode (single replicate values)” value (5HT1E; Log[Drug] -11) was -16.6513 and -2.431 and 20.3066 and 6.343 and -2.603 and 3.357. The “β-arrestin2 recruitment response (dose-response source data, replicate values)” value (5HT4; Log[Drug] -6.52) was 4.364 and 3.213 and 1.27 and 4.689 and 5.849 and 4.639 and 0.7041 and 1.028 and 0.8286, the “β-arrestin2 recruitment response (dose-response source data, replicate values)” value (5HT4; Log[Drug] -7) was 0.4502 and 1.04 and 0.7749 and 1.703 and 3.757 and 0.2045 and 0.7898 and the “β-arrestin2 recruitment response (dose-response source data, replicate values)” value (5HT4; Log[Drug] -7.52) was 0.2639 and 1.123 and 0.6731 and 1.44 and 0.8323 and -0.173 and -0.1455 and 0.1779. For the same compound, the “β-arrestin2 recruitment response (dose-response source data, replicate values)” value (5HT4; Log[Drug] -8) was 0.909 and 1.368 and 1.768 and 1.945 and 1.002 and 4.528 and -0.04204 and 0.2773 and -0.04931, the “β-arrestin2 recruitment response (dose-response source data, replicate values)” value (5HT4; Log[Drug] -8.52) was 1.014 and 0.4607 and 1.27 and 2.026 and 2.149 and 0.7135 and 0.536 and the “β-arrestin2 recruitment response (dose-response source data, replicate values)” value (5HT4; Log[Drug] -9) was 4.112 and 0.5135 and 0.7781 and 0.7219 and 2.151 and -0.2021 and -0.04689 and 0.1787. The “β-arrestin2 recruitment response (dose-response source data, replicate values)” value (5HT4; Log[Drug] -9.52) was -0.1745 and 0.2987 and 0.5551 and 1.654 and 2.192 and 1.098 and -0.3371 and 0.1099, the “β-arrestin2 recruitment response (dose-response source data, replicate values)” value (5HT4; Log[Drug] -10) was 0.07451 and 0.7799 and 1.035 and 0.7688 and 1.653 and 0.865 and -0.1787 and 0.1471 and the “β-arrestin2 recruitment response (dose-response source data, replicate values)” value (5HT4; Log[Drug] -10.52) was -0.001242 and 0.2372 and 0.7047 and -0.005208 and 0.949 and 0.8156 and -0.3363 and -0.2741. The “β-arrestin2 recruitment response (dose-response source data, replicate values)” value (5HT4; Log[Drug] -11) was 0.09934 and 0.2831 and 0.9059 and 0.201 and 0.5729 and -0.1083 and 0.6362 and -0.2773, the “β-arrestin2 recruitment response (dose-response source data, replicate values)” value (5HT4; Log[Drug] -11.52) was -0.1788 and 1.011 and 0.1838 and 2.165 and 0.3594 and 0.526 and -0.2336 and -0.308 and 0.3767 and the “β-arrestin2 recruitment response (dose-response source data, replicate values)” value (5HT4; Log[Drug] -12) was 0.2813 and -0.1521 and 0.7458 and 0.6208 and 0.6615 and -0.1358 and -0.3662. The “response, Fig_S10l, replicate values” ([1]; Log[Drug] -6.52) was 89.1482 and 68.7936 and 58.4442, the “response, Fig_S10l, replicate values” ([1]; Log[Drug] -7) was 66.8775 and 42.3868 and 35.3098 and 60.5263 and 52.6042 and 58.638 and 24.4765 and 22.6408 and 30.0813 and the “response, Fig_S10l, replicate values” ([1]; Log[Drug] -7.52) was 68.5906 and 51.7176 and 27.5973 and 17.0437 and 36.727 and -5.864 and 8.121 and 12.6341 and 15.0506. The “response, Fig_S10l, replicate values” ([1]; Log[Drug] -8) was 24.3997 and 25.1743 and 11.0247 and 13.4188 and 3.861 and -8.27 and 5.486 and 9.516 and -0.3454, the “response, Fig_S10l, replicate values” ([1]; Log[Drug] -8.52) was 28.2691 and 10.8991 and 0.6654 and 20.8515 and 4.218 and 3.753 and -2.601 and -10.3369 and 7.58 and the “response, Fig_S10l, replicate values” ([1]; Log[Drug] -9) was 8.291 and 7.398 and -4.407 and 28.3765 and 10.5666 and -13.7434 and -1.811 and 21.0925 and -2.254. The “response, Fig_S10l, replicate values” ([1]; Log[Drug] -9.52) was 15.1454 and -8.903 and -7.678 and 11.6014 and -2.921 and -5.371 and 3.959 and 0.2537 and -8.706, the “response, Fig_S10l, replicate values” ([1]; Log[Drug] -10) was 10.6015 and 17.2844 and 5.47 and 9.7774 and -6.372 and -8.832 and 0.1972 and 15.6666 and 6.603 and the “response, Fig_S10l, replicate values” ([1]; Log[Drug] -10.52) was 14.0658 and 3.099 and 4.084 and 6.9236 and -15.9908 and -3.571 and 14.7648 and -9.016 and -4.897. For the same compound, the “response, Fig_S10l, replicate values” ([1]; Log[Drug] -11) was 11.925 and 9.507 and -4.609 and 40.988 and 1.279 and -23.0265 and -4.413 and 0.5655 and 2.993, the “response, Fig_S10l, replicate values” ([1]; Log[Drug] -11.52) was 29.1466 and 5.5415 and 2.1791 and 13.0085 and 1.916 and 6.51 and 8.732 and 12.6601 and the “response, Fig_S10l, replicate values” ([1]; Log[Drug] -12) was 12.8871 and 8.151 and 29.2053 and 0.5174 and 13.376 and 13.9134 and 1.483 and -15.396.
